In test [1] the target is T1, Aldose reductase (Oryctolagus cuniculus, UniProt P15122).
T1 construct: Aldose reductase is isolated by homogenizing the lens in 3 volumes of water; from tissue; host or cells: lens of mature New Zealand rabbits
Kind of test: Aldose reductase inhibition, in vitro (loss of absorbance at 340 millimicrons, glyceraldehyde substrate, NADPH). The test is classed as biochemical, New Zealand rabbits (lens). The note with it: pH 6.0, 37° C; for inhibition at 100 µM: 1 × 10^-4 molar concentration of xanthone compound; for inhibition at 10 µM: 1 × 10^-5 molar concentration of xanthone compound; for inhibition at 1 µM: 1 × 10^-6 molar concentration of xanthone compound. How it is done: In brief, a solution of the enzyme is added to an appropriately buffered solution containing glyceraldehyde. The loss of ultra violet absorbance at 340 millimicrons is indicative of the rate of reaction of the aldehyde with the enzyme as previously reported by Hayman and Kinoshita, (J. Biol. Chem: 240, 877, (1965)).
Fifty lenses are obtained from mature, New Zealand, rabbits and are immediately frozen on dry ice. Aldose reductase is isolated by homogenizing the lens in 3 volumes of water for 30 seconds in a Waring blender followed by centrifugation at 10,000 xg for 15 minutes to remove insoluble material. Saturated ammonium sulfate is added to the supernatant fluid to 40% saturation. The suspension is centrifuged after 15 minutes, and the supernatant liquid recovered. Additional protein is removed by increasing the ammonium sulfate concentration to 50%, and centrifuging the mixture. Aldose reductase is precipitated from the 50% saturated solution by the addition of powdered ammonium sulfate to 75% saturation and is recovered by centrifugation. The precipitated enzyme is assayed by following the ultraviolet absorbance at 340 millimicrons after dissolving the enzyme in 0.05 M sodium chloride. The enzyme (0.50 ml) is added to a quartz cuvette containing phosphate buffer (0.067 M, pH 6.0), NADPH (2×10^-5 M), and water to a final volume of 3 ml and the cuvette inserted in a conventional ultra-violet spectrometer. The reaction is started by the addition of substrate (glyceraldehyde) to the contents of the cuvette and is followed by the determination of loss of absorbance at 340 millimicrons for 2 minutes at 37° C. The reaction rate observed is usually linear for at least 5 minutes.
All results are shown in Tables I, II, and III as % inhibition, i.e. based on a non-inhibited control sample, no inhibition, 0%.

The test system of test [2] is lens aldose reductase. The settings on record: in vitro; cited from earlier work.

For `CC(C)N(C)S(=O)(=O)c1ccc2oc3ccc(C(=O)O)cc3c(=O)c2c1`, in test [1], the inhibition at 100 µM came to 89%, testing at 10 µM gave an inhibition of 69% and at 1 µM the inhibition was 17%.
The like results for `CC(C)CCOc1cc([S+](C)[O-])cc2c(=O)c3cc(C(=O)O)ccc3oc12` (stereo not drawn) were, in that order, 90%, 65% and 25%.
In the same order, the values of `CCCCN(C)S(=O)(=O)c1ccc2oc3ccc(C(=O)O)cc3c(=O)c2c1` are 95%, 75% and 25%.
In the same order, the values of `CSc1cc(C(C)C)c2oc3ccc(C(=O)O)cc3c(=O)c2c1` are 97%, 67% and 17%.
In test [1], `CSc1cc(OC(C)C)c2oc3ccc(C(=O)O)cc3c(=O)c2c1` gave an inhibition at 100 µM of 85%, an inhibition at 10 µM of 67% and an inhibition at 1 µM of 17%.
In test [1], `CSc1cc(OC(C)C)cc2c(=O)c3cc(C(=O)O)ccc3oc12` showed an inhibition at 100 µM of 85%, an inhibition at 10 µM of 60% and an inhibition at 1 µM of 30%.
In the same order, the values of `CC(C)Oc1ccc2oc3ccc(C(=O)O)cc3c(=O)c2c1` are 89%, 73% and 3%.
On to `O=C(O)c1ccc2oc3ccc(OCC(O)CO)cc3c(=O)c2c1` (stereo not drawn), for which, in test [1], testing at 10 µM gave an inhibition of 81% and testing at 1 µM gave an inhibition of 54%.
As for `O=C(O)c1ccc2oc3ccc(S(=O)(=O)N(CCO)CCO)cc3c(=O)c2c1` [(HOCH2 CH2)2 N 2 H], the inhibition at 10 µM in test [1] was determined as 67%.
In test [1], `CCCCCOc1cc([S+](C)[O-])cc2c(=O)c3cc(C(=O)O)ccc3oc12` (stereo not drawn) [CH3 1 n-C5 H11 O] displayed an inhibition at 100 µM of 95%, an inhibition at 10 µM of 70% and an inhibition at 1 µM of 35%.
In the same order, the values of `CCCCCCCCOc1cc([S+](C)[O-])cc2c(=O)c3cc(C(=O)O)ccc3oc12` (stereo not drawn) [CH3 1 n-C8 H11 O] are 96%, 83% and 42%.
For the compound `C[S+]([O-])c1cc(S(C)(=O)=O)cc2c(=O)c3cc(C(=O)O)ccc3oc12` (stereo not drawn) [CH3 2 CH3 SO], testing at 10 µM in test [1] gave an inhibition of 50%.
With `CCC(=O)c1ccc2oc3ccc(C(=O)O)cc3c(=O)c2c1` [CH3 CH2 H], in test [1], 10 µM produced 54% inhibition and the inhibition at 1 µM was 50%. The “% Inhibition” value in test [1] (molar concentration printed (Table II)) is given as 63%.
For `COc1cc(OC)c2oc3ccc(C(=O)O)cc3c(=O)c2c1` [CH3 O CH3 O], in test [1], the inhibition at 10 µM came to 39% and the inhibition at 1 µM worked out at 25%.
As to `COc1ccc2oc3ccc(C(=O)O)cc3c(=O)c2c1` [CH3 O H], in test [1], the inhibition at 100 µM was determined as 81%, the inhibition at 10 µM is 39% and the inhibition at 1 µM is 17%.
In test [1], `O=C(O)c1ccc2oc3ccc(S(=O)(=O)O)cc3c(=O)c2c1` [H 3 H] returned an inhibition at 100 µM of 70% and an inhibition at 10 µM of 43%.
In test [1], `COc1cccc2c(=O)c3cc(C(=O)O)ccc3oc12` [H CH3 O] showed an inhibition at 100 µM of 78%, an inhibition at 10 µM of 50% and an inhibition at 1 µM of 28%.
Consider `O=C(O)c1ccc2oc3ccc(S(=O)(=O)CCO)cc3c(=O)c2c1` [HO(CH2)2 2 H, 7-(2-hydroxyethylsulfonyl)xanthone-2-carboxylic acid], for which testing at 10 µM in test [1] gave an inhibition of 83%.
In the case of `CC1OC(Oc2c(-c3cc(O)c(O)c(O)c3)oc3cc(O)cc(O)c3c2=O)C(O)C(O)C1O` (stereo not drawn) [myrecetrin], the “inhibition of lens aldose reductase (potency in words)” value (from here on “inhibition of lens aldose reductase”) in test [2] is reported as “among the most potent”.
As for `O=c1c(O)c(-c2ccc(O)c(O)c2)oc2cc(O)cc(O)c12` [quercetin], in test [2], the “inhibition of lens aldose reductase” value is recorded as “among the most potent”.
In the case of `CC1OC(Oc2c(-c3ccc(O)c(O)c3)oc3cc(O)cc(O)c3c2=O)C(O)C(O)C1O` (stereo not drawn) [quercetrin], in test [2], the “inhibition of lens aldose reductase” value is reported as “among the most potent”.
